From paper PMC2440032, “Odorranalectin Is a Small Peptide Lectin with Potential for Drug Delivery and Targeting” (PLoS ONE, 2008)
pKd: −log10 of the molar value. Where “and” joins values, the source holds several entries; their conditions need not be identical. Equal values may be shown once.

Legend:
[1] = tested on: odorranalectin-mediated erythrocytes hemagglutination; test: Hemagglutination-inhibition test; type: cell-based, rabbit; conditions: for MIC, minimum concentration to inhibit odorranalectin-mediated erythrocytes hemagglutination: inhibition of four hemagglutination doses of odorranalectin
Method: Intact, pronase-treated, trypsin-treated, and formaldehyde-treated rabbit erythrocytes were prepared. Assays were carried out in U-well microtiter plates (96 wells) as described previously [21]–[23]. The details are provided in the supplementary materials (Materials and Methods S1).
Inhibition was expressed as the minimum concentration of each sugar or glycoprotein required for inhibition of hemagglutination of titer 4 of the lectin.

[2] = target: immobilized odorranalectin (Odorrana grahami, UniProt B3TFE9); test: SPR, analytes on immobilized odorranalectin; type: binding
Method: Real time detection of odorranalectin and its mutants binding to glycoproteins and L-fucose was recorded by using a Biacore 3000 [21]–[24]. The details are provided in the supplementary materials (Materials and Methods S1).
SPR Analysis. Real time detection of odorranalectin and its mutants binding to glycoproteins and L-fucose was recorded by using a Biacore 3000 [21-24]. Odorranalectin was immobilized covalently via their primary amines to carboxyl groups within a dextran layer on the sensor chip CM-5 according to the manufacturer’s specifications. After chip activation with 0.4 M 1-ethyl-3- (3-dimethylaminopropyl) carbodiimide hydrochloride and 10 mM N-hydroxysuccinimide, odorranalectin or its mutants (in 10 mM sodium acetate buffer, pH 4.0) at a concentration of 100 μg/ml was passed through the flow cells at a rate of 5 μl/min. After immobilization, the chip was capped by exposure to 1 M ethanolamine (pH 8.5).
All analyses were performed at a flow rate of 30 μl/min. Before loading of analytes, the chip was equilibrated with 10 mM HEPES-buffered saline containing 3 mM EDTA and 0.005% surfactant P-20, pH 7.4 (HBS-EP). Each analyte at various concentrations in the same buffer was injected over the immobilized ligand for 4 min. After injection of the analyte, HBS-EP was introduced onto the sensor surface to start dissociation, and dissociation data were collected for 5 min. The chip was regenerated by injection of 5μl of 10 mM HCl or NaOH, followed by HBS-EP.
Association and dissociation rate constants (ka and kd) were calculated by using BIA evaluation 4.0 software (Biacore AB, Sweden). The affinity constant (KD) was calculated from the ka and kd. For the calculation of rate constants, samples were appropriately diluted in HBS-EP at various concentrations.

[3] = SPR Biacore 3000, CM-5 chip, HBS-EP pH 7.4, 1:1 binding model

O=[N+]([O-])c1ccccc1O[C@@H]1O[C@H](CO)[C@H](O)[C@H](O)[C@H]1O [2-nitrophenyl-β-D-galactopyranoside]
MIC, minimum concentration to inhibit odorranalectin-mediated erythrocytes hemagglutination ([1]; sugars): > 200 mM

OC[C@H]1O[C@@H](Oc2c[nH]c3ccc(Br)c(Cl)c23)[C@H](O)[C@@H](O)[C@H]1O [5-bromo-4-chloro-3-indoxyl-β-D-galactopyranoside]
MIC, minimum concentration to inhibit odorranalectin-mediated erythrocytes hemagglutination ([1]; sugars): > 200 mM

OC1OC[C@@H](O)[C@@H](O)[C@@H]1O (stereo partly drawn) [D(+)-arabinose]
MIC, minimum concentration to inhibit odorranalectin-mediated erythrocytes hemagglutination ([1]; sugars): > 200 mM

OC[C@H]1O[C@@H](O[C@H]2[C@H](O)[C@@H](O)[C@H](O)O[C@@H]2CO)[C@H](O)[C@@H](O)[C@@H]1O [D(+)-cellobiose]
MIC, minimum concentration to inhibit odorranalectin-mediated erythrocytes hemagglutination ([1]; sugars): > 200 mM

OC[C@H]1OC(O)[C@H](O)[C@@H](O)[C@H]1O (stereo partly drawn) [D(+)-galactose]
MIC, minimum concentration to inhibit odorranalectin-mediated erythrocytes hemagglutination ([1]; sugars): > 200 mM

O=C(O)[C@H]1OC(O)[C@H](O)[C@@H](O)[C@H]1O (stereo partly drawn) [D(+)-galacturonic acid]
MIC, minimum concentration to inhibit odorranalectin-mediated erythrocytes hemagglutination ([1]; sugars): > 200 mM

O.OC[C@H]1O[C@@](CO)(O[C@H]2O[C@H](CO)[C@@H](O)[C@H](O)[C@H]2O)[C@@H](O[C@H]2O[C@H](CO)[C@@H](O)[C@H](O)[C@H]2O)[C@@H]1O [D(+)-melezitose monohydrate]
MIC, minimum concentration to inhibit odorranalectin-mediated erythrocytes hemagglutination ([1]; sugars): > 200 mM

O.O.O.O.O.OC[C@H]1O[C@H](OC[C@H]2O[C@H](O[C@]3(CO)O[C@H](CO)[C@@H](O)[C@@H]3O)[C@H](O)[C@@H](O)[C@@H]2O)[C@H](O)[C@@H](O)[C@H]1O [D(+)-raffinose pentahydrate]
MIC, minimum concentration to inhibit odorranalectin-mediated erythrocytes hemagglutination ([1]; sugars): > 200 mM

OC1COC(O)C(O)C1O (stereo not drawn) [D(+)-xylose]
MIC, minimum concentration to inhibit odorranalectin-mediated erythrocytes hemagglutination ([1]; sugars): > 200 mM

OC[C@H]1OC(O)[C@H](O)[C@@H](O)[C@@H]1O (stereo partly drawn) [D-glucose]
MIC, minimum concentration to inhibit odorranalectin-mediated erythrocytes hemagglutination ([1]; sugars): > 200 mM

O=C(CO)[C@H](O)[C@@H](O)[C@H](O)CO [D-sorbose]
MIC, minimum concentration to inhibit odorranalectin-mediated erythrocytes hemagglutination ([1]; sugars): > 200 mM

OC[C@H]1O[C@H](O[C@H]2O[C@H](CO)[C@@H](O)[C@H](O)[C@H]2O)[C@H](O)[C@@H](O)[C@@H]1O [D-trehalose]
MIC, minimum concentration to inhibit odorranalectin-mediated erythrocytes hemagglutination ([1]; sugars): > 200 mM

C[C@@H]1O[C@@H](O)[C@H](O)[C@H](O)[C@H]1O.O [L(+)-rhamnose monohydrate]
MIC, minimum concentration to inhibit odorranalectin-mediated erythrocytes hemagglutination ([1]; sugars): > 200 mM

C[C@H](O)[C@@H](O)[C@@H](O)[C@H](O)C=O [L-fucose, reference compound]
minimal effective concentration ([1]; Oryctolagus cuniculus, Erythrocyte, read-out: MIC, minimum concentration to inhibit odorranalectin-mediated erythrocytes hemagglutination): 12500 µM
pKd ([2]; SPR Biacore 3000, CM-5 chip, HBS-EP pH 7.4, calculated from ka and kd): 4.26
kon ([2]; pH 7.4, read-out: ka): 159 M⁻¹ s⁻¹
koff ([2]; pH 7.4, read-out: kd): 0.00867 s⁻¹

CC(=O)N[C@@H]1C(O)O[C@H](CO)[C@@H](O)[C@@H]1O (stereo partly drawn) [N-acetyl-D-mannosamine]
MIC, minimum concentration to inhibit odorranalectin-mediated erythrocytes hemagglutination ([1]; sugars): > 200 mM

CC(=O)N[C@@H]1[C@@H](O)[C@@H](O)[C@@H](CO)O[C@@H]1O [N-acetylgalactosamine]
MIC, minimum concentration to inhibit odorranalectin-mediated erythrocytes hemagglutination ([1]; sugars): > 200 mM

O=C(CO)N[C@H]1[C@H]([C@H](O)[C@H](O)CO)OC(O)(C(=O)O)C[C@@H]1O (stereo partly shown) [N-glycolylneuraminc acid]
MIC, minimum concentration to inhibit odorranalectin-mediated erythrocytes hemagglutination ([1]; sugars): > 200 mM

OC[C@@H](O)[C@H](O)[C@H](O)[C@@H](O)CO [dulcitol]
MIC, minimum concentration to inhibit odorranalectin-mediated erythrocytes hemagglutination ([1]; sugars): > 200 mM

CC(C)S[C@@H]1O[C@H](CO)[C@H](O)[C@H](O)[C@H]1O [isopropy-β-D-thiogalactoside]
MIC, minimum concentration to inhibit odorranalectin-mediated erythrocytes hemagglutination ([1]; sugars): > 200 mM

D(+)-maltose monohydrate
MIC, minimum concentration to inhibit odorranalectin-mediated erythrocytes hemagglutination ([1]; sugars): > 200 mM

Fetuin: glycoprotein used as analyte and inhibitor
Inhibition of the hemagglutinating activity of odorranalectin by glycoproteins (in words) [1]: most effective inhibitor
MIC, minimum concentration to inhibit odorranalectin-mediated erythrocytes hemagglutination ([1]; glycoproteins): 15.63 µg/mL and 15.6 µg/mL
ka [2, 3]: 2890 M⁻¹ s⁻¹
kd [2, 3]: 0.00061 s⁻¹

Transferrin: glycoprotein used as analyte
Inhibition of the hemagglutinating activity of odorranalectin by glycoproteins (in words) [1]: All the glycoproteins except transferrin could inhibit
Binding to immobilized odorranalectin (in words) ([2]; SPR): did not bind

heparin
MIC, minimum concentration to inhibit odorranalectin-mediated erythrocytes hemagglutination ([1]; sugars): > 200 mM

inulin
MIC, minimum concentration to inhibit odorranalectin-mediated erythrocytes hemagglutination ([1]; sugars): > 200 mM
